# Test results as given in ChEMBL document CHEMBL1201862, “PubChem BioAssay data set” (2004).
# Active and inactive are the calls of the source.
# Assays:
# HeLa = assay: ATP-based viability loss in HeLa cells – cell-based, CellTiter-Glo luminescence, cherry-pick samples, cytotoxicity control for MITF activator project, dose response (AID 540259); type: functional; settings: Homo sapiens
# Protein RecA = target: T1, Protein RecA (Mycobacterium tuberculosis, UniProt P9WHJ3); assay: Fluorescence Cell-Free Homogeneous Dose Retest to Identify Inhibitors of RecA-Intein Splicing Activity. [Related pubchem assays (depositor defined):AID2097, AID2223, AID489010, AID492950]; type: functional
# T1 sequence (P9WHJ3 whole entry): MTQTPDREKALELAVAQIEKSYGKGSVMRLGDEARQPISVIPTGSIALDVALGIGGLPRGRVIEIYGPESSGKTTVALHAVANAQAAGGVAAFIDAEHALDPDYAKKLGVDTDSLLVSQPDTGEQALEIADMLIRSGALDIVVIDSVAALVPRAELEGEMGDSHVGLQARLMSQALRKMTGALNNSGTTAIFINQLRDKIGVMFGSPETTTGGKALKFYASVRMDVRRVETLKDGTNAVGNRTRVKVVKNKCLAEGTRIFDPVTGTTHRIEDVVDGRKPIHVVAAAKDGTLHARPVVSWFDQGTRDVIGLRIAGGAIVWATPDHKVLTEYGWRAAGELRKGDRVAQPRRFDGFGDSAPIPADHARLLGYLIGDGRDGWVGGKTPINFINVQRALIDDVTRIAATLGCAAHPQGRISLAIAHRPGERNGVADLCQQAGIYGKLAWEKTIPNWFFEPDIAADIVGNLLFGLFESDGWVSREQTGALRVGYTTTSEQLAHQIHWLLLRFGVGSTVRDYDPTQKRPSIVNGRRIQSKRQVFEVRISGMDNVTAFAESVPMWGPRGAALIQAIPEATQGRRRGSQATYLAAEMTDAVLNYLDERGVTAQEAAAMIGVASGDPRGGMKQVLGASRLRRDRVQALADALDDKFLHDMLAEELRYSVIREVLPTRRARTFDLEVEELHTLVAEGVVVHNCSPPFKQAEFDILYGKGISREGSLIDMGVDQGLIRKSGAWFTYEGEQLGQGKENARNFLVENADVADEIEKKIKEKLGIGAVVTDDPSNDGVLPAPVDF
# CAAX prenyl protease 1 = CAAX prenyl protease 1 (Saccharomyces cerevisiae S288c, UniProt P47154); assay: yeast CAAX protease Ste24 inhibition – biochemical, S. cerevisiae, plate reader, cherry-pick, dose response (AID 488815)
# [1] = target: T2, Replicative DNA helicase DnaB (Mycobacterium tuberculosis, UniProt P9WMR3); assay: DnaB intein splicing inhibitors, dose response, biochemical, cell-free fluorescence (AID 449749); type: functional
# T2 sequence (P9WMR3 whole entry): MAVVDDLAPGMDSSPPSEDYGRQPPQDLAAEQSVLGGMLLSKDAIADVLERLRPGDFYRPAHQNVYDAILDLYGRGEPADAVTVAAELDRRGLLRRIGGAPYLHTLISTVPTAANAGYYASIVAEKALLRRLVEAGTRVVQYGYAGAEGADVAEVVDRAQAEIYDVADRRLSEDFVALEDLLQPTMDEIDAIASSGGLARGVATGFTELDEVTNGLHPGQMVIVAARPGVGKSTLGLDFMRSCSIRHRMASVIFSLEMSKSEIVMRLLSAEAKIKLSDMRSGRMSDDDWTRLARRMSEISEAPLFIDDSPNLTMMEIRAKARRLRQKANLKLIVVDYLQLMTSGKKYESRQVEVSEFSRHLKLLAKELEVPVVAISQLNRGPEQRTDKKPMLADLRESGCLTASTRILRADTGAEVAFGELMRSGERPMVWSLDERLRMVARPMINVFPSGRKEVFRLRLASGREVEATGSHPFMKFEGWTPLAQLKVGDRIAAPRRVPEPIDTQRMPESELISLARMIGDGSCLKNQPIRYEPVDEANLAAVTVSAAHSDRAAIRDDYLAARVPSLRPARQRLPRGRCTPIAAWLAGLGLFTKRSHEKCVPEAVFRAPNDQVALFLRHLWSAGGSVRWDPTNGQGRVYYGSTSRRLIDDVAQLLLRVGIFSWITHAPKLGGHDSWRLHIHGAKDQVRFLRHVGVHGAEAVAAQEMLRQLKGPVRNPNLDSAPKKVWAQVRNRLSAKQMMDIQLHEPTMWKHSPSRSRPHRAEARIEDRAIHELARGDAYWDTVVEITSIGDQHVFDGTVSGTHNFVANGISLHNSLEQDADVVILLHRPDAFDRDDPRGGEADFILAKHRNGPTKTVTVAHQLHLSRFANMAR
# [2] = Luminescence Cell-Based Dose Retest to Confirm Inhibitors of Cancer Stem Cells. [Related pubchem assays (depositor defined):AID2717, AID2721]; type: functional; settings: Homo sapiens
# [3] = target: T3, Ubiquitin-conjugating enzyme E2 N (Homo sapiens, UniProt P61088); type: functional;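 note: Dose-response confirmation in a TR-FRET assay detecting UBC13-driven polyubiquitin chain formation, inhibition measured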
# T3 sequence (P61088 whole entry): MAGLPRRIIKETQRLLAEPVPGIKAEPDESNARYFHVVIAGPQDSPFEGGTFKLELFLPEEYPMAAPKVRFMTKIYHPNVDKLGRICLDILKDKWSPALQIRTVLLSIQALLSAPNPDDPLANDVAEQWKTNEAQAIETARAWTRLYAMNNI
# Trypsin = Trypsin (Sus scrofa, UniProt P00761); assay: trypsin protease activity blockade – biochemical, quenched peptide fluorescence, cherry-pick, selectivity assay for Rce1 protease inhibitor project, dose response (AID 488789)
# CAAX prenyl protease 2 = target: T4, CAAX prenyl protease 2 (Homo sapiens, UniProt Q9Y256); assay: inhibition of Ras-converting CAAX protease Rce1 – biochemical, yeast membranes, quenched-peptide fluorescence, cherry-pick, dose response (AID 588849)
# T4 sequence (Q9Y256 whole entry): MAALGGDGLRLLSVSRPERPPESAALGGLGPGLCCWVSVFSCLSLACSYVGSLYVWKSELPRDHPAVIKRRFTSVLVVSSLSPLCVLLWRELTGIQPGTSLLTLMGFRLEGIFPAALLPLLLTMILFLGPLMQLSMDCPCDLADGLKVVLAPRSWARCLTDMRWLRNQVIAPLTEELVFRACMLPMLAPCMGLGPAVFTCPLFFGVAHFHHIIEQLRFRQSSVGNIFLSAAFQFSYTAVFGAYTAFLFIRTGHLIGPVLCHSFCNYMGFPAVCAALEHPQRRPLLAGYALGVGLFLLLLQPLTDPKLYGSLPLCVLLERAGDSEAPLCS
# [4] = NIH3T3 cell viability loss – ATP luminescence, mouse fibroblasts, counter-screen, dose response (AID 2010); type: functional, cell-based;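 note: cells exposed to compound for about 90 hours before reading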
# [5] = Trypanosoma cruzi growth suppression in host cells – NIH3T3 host cells, beta-gal luminescence, confirmation (AID 2044); type: functional, cell-based;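 note: intracellular parasites grown in NIH/3T3 mouse fibroblasts as host cells; luminescent beta-galactosidase reporter signal from transgenic T. cruzi replicating inside host cells; inhibitors lower the luminescence signal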
# [6] = fluconazole-exposed Candida albicans growth modulators – fluorescence, retest, confirmation (AID 2467); type: functional, cell-based
# Jurkat = assay: blockers of NF-kB activation in T cells – Jurkat, luciferase reporter, luminescence, B- and T-cell, dose response (AID 489004); type: functional, cell-based; settings: Homo sapiens;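 note: NF-kB luciferase reporter Jurkat cells stimulated with PMA plus ionomycin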
# [7] = NIH-3T3 fibroblast cytotoxicity, dose response, cytotoxicity control, cell-based, fluorescence, Alamar Blue, secondary assay (AID 2327); type: functional;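 note: NIH-3T3 mouse fibroblasts cultured with fluconazole at 8 µg/mL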
# [8] = HEK-293T viability loss, compound-treated – cell-based, uHTS hits, cytotoxicity control for B/T-cell NF-kB inhibitor project, dose response (AID 489019); type: functional;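 note: IC50 reflects cytotoxicity as loss of cell viability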
# Sequence of CAAX prenyl protease 1 (P47154 whole entry): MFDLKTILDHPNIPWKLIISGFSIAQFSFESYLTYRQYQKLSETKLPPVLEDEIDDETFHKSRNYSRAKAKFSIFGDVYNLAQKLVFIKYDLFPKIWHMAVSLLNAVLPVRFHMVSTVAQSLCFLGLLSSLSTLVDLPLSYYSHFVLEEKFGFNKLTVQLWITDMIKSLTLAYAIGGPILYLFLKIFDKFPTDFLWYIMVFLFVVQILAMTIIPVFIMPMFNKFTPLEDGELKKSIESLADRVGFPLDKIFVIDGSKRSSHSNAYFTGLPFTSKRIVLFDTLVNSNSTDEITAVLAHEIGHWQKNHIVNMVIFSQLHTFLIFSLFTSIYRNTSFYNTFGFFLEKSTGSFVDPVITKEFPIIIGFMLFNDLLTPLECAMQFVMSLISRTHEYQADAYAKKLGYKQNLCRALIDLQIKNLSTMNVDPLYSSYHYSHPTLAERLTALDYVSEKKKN
# Sequence of Trypsin (P00761 whole entry): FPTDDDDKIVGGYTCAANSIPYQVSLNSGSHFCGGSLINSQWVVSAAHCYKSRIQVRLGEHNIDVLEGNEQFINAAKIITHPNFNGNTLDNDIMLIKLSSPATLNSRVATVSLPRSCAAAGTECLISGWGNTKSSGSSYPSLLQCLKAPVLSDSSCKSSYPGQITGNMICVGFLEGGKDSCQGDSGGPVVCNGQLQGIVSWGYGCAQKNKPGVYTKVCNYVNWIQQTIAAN
compound,measurement,setting,value
O=C(N/C=C/c1ccccc1)c1ccccc1,AC50,HeLa,206 µM (active)
CCN(Cc1ccccc1)S(=O)(=O)c1ccc(C(=O)N(CCCN(C)C)c2nc3cc(C)cc(C)c3s2)cc1,EC50,Protein RecA,17.7 µM (active)
same,AC50,CAAX prenyl protease 1,17 µM (active)
same,AC50,[1],7.04 µM (active)
same,AC50,[2],4.44 µM (active)
same,IC50,[3],> 20 µM (inactive)
CCc1ccc(NC(=O)c2cnc(N3CCN(c4ccccn4)CC3)c3ccccc23)cc1,AC50,CAAX prenyl protease 1,9.95 µM (active)
same,AC50,Trypsin,87.7 µM (active)
same,AC50,CAAX prenyl protease 2,29.7 µM (active)
same,EC50,[4],> 30 µM (not active)
same,EC50,[5],3.14 µM (active)
CN(C)c1ccc(-c2n(C)c3ccccc3[n+]2C)cc1,EC50,[6],2.18 µM (active)
same,IC50,Jurkat,> 80 µM (inactive)
same,EC50,[7],> 150 µM (inactive)
same,IC50,[8],> 80 µM (inactive)
same,EC50,[4],18.1 µM (active)
same,EC50,[5],0.582 µM (active)
